According to PMC12471299, “Secondary Metabolites of the Marine Sponge-Derived Fungus Aspergillus subramanianii 1901NT-1.40.2 and Their Antimicrobial and Anticancer Activities” (Marine Drugs, 2025):
Values after ≈ are worked out from the molar mass of the structure shown. Values joined by “and” are separate entries in the source; they are usually repeats but may differ in a detail not shown here. Equal entries are not always repeated. Where two headings read alike, the source gives them in different places. Each block holds one molecule with its values, some of them ahead of it.

Experiments:
Candida albicans KMM 455 [1] = test: Antimicrobial assay, growth inhibition (optical density); type: cell-based; settings: C. albicans, 18 h; for MIC50: Candida albicans, KMM455, 18 h
How it was run: (§1)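 Strains were precultured on Mueller Hinton agar at 37 °C for 24 h, then exposed to compound at up to 100 µM. Growth was read as OD620 after 18 h; 18 h biofilm formation was quantified with MTT at OD570. Values are MIC50, the lowest concentration cutting growth or biofilm by 50% versus 1% DMSO/PBS control.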

[2] = test system: Staphylococcus aureus ATCC 21027; test: as above; type: cell-based; settings: S. aureus, 18 h; for MIC50: Staphylococcus aureus, ATCC21027, 18 h
How it was run: as §1

Candida albicans KMM 455 [3] = test: Biofilm formation assay (MTT); type: cell-based; settings: C. albicans, 18 h
How it was run: (§2)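 Cultures grown 24 h at 37 °C on Mueller Hinton agar; compound applied at concentrations of 100 µM and below. After 18 h, growth read at OD620 and biofilm via MTT at OD570; results expressed as percent of 1% DMSO/PBS control and given as MIC50.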

[4] = test system: Escherichia coli VKPM (B-7935); test: Biofilm formation assay (MTT); type: cell-based; settings: E. coli, 18 h
How it was run: as §2

[5] = Cell viability assay (MTT); type: cell-based, rat; settings: rat, H9c2 cardiomyocytes, read-out: Cytotoxicity IC50; for IC50 at 24 h: H9c2, 24 h; for IC50 at 48 h: H9c2, 48 h
How it was run: (§3)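 Seeding/well: H9c2 3 × 10^3; MDA-MB-231, MCF-10A 5 × 10^3; HaCaT 1 × 10^4. Treatment began 24 h post-seeding; compounds ≤100 µM, 24 h or 48 h, 37 °C. Read-out MTT, % of DMSO control.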

[6] = Cell viability assay (MTT); type: cell-based, human; settings: human, read-out: Cytotoxicity IC50
How it was run: as §3

HaCaT keratinocytes = test: Cell viability assay (MTT); type: cell-based, human
How it was run: as §3

[7] = test system: MCF-10A breast epithelial cells; test: Cell viability assay (MTT); type: cell-based, human; settings: MCF10A
How it was run: as §3

[8] = test system: MCF-7 breast cancer cells; test: Cell viability assay (MTT); type: cell-based, human
[9] = test system: MDA-MB-231 breast cancer cells; test: Cell viability assay (MTT); type: cell-based, human
How it was run: as §3

S. aureus ATCC 29213 = test system: S. aureus ATCC 29213; parameters: method as in PMID 29642369; settings: cited from earlier work
[10] = test system: methicillin-resistant S. aureus (MRSA); parameters: method as in PMID 29642369; settings: cited from earlier work
HT29 cells = test system: HT29 cells; parameters: method as in PMID 29642369; settings: cited from earlier work
[11] = test system: malignant glioma U251 cells; parameters: method as in PMID 29642369; settings: cited from earlier work
[12] = test system: malignant glioma T98G cells; parameters: method as in PMID 29642369; settings: cited from earlier work
[13] = MCF-7 breast cancer cells, MCF-7, 24 h
[14] = MCF-7 breast cancer cells, MCF-7, 48 h
[15] = MCF-10A breast epithelial cells, MCF10A, 24 h
[16] = MCF-10A breast epithelial cells, MCF10A, 48 h
[17] = MDA-MB-231 breast cancer cells, MDA-MB-231, 24 h
[18] = MDA-MB-231 breast cancer cells, MDA-MB-231, 48 h

- Growth inhibition, MIC50 (Candida albicans KMM 455 [1]): 10.44 ± 1.07 µM
- MIC50 (Candida albicans KMM 455 [1]): 7 to 10 µM (≈ 3.06 to 4.37 µg/mL)
- Growth inhibition, MIC50 [2]: 9.38 ± 0.77 µM
- MIC50 [2]: 7 to 11 µM (≈ 3.06 to 4.8 µg/mL)
- Biofilm formation, MIC50 (Candida albicans KMM 455 [3]): 8.36 ± 0.95 µM
- Biofilm formation, MIC50 [4]: 10.34 ± 0.98 µM
Structure (SMILES): COC1=C(c2c[nH]c3ccccc23)C(=O)C(CC=C(C)C)=C(c2c[nH]c3ccccc23)C1=O [Compound 6, kumbicin D]
- IC50 at 24 h [5]: 72.2 ± 4.1 µM
- IC50 at 48 h [5]: 65.4 ± 2.1 µM
- IC50 at 24 h ([6]; HaCaT keratinocytes, 24 h): > 100 µM
- IC50 at 48 h ([6]; HaCaT keratinocytes, 48 h): 49.4 ± 1.2 µM
- IC50 at 24 h [6, 13]: 62.2 ± 2.2 µM
- IC50 at 48 h [6, 14]: 47.3 ± 1.7 µM
- IC50 at 24 h [6, 15]: 65.7 ± 1.9 µM
- IC50 at 48 h [6, 16]: 55.6 ± 2.3 µM
- IC50 at 24 h [6, 17]: 74.4 ± 0.6 µM
- IC50 at 48 h [6, 18]: 58.2 ± 2 µM
- cell viability (HaCaT keratinocytes; 24 h, 1.0 µM): 97.2 ± 5.7 % of control
- cell viability (HaCaT keratinocytes; 24 h, 10.0 µM): 98.6 ± 3.5 % of control
- cell viability (HaCaT keratinocytes; 24 h, 100.0 µM): 21.5 ± 3.3 % of control
- cell viability (HaCaT keratinocytes; 48 h, 1.0 µM): 100.5 ± 3.3 % of control
- cell viability (HaCaT keratinocytes; 48 h, 10.0 µM): 80.0 ± 0.1 % of control
- cell viability (HaCaT keratinocytes; 48 h, 100.0 µM): 11.6 ± 3.5 % of control
- cell viability ([7]; 24 h, 1.0 µM): 101.6 ± 3.1 % of control
- cell viability ([7]; 24 h, 10.0 µM): 92.4 ± 3.6 % of control
- cell viability ([7]; 24 h, 100.0 µM): 23.9 ± 6.2 % of control
- cell viability ([7]; 48 h, 1.0 µM): 98.4 ± 4.5 % of control
- cell viability ([7]; 48 h, 10.0 µM): 87.4 ± 2.7 % of control
- cell viability ([7]; 48 h, 100.0 µM): 13.7 ± 3.2 % of control
- cell viability ([8]; MCF-7, 24 h, 1.0 µM): 107.6 ± 6.5 % of control
- cell viability ([8]; MCF-7, 24 h, 10.0 µM): 77.7 ± 7.5 % of control
- cell viability ([8]; MCF-7, 24 h, 100.0 µM): 29.9 ± 0.8 % of control
- cell viability ([8]; MCF-7, 48 h, 1.0 µM): 84.6 ± 9.4 % of control
- cell viability ([8]; MCF-7, 48 h, 10.0 µM): 76.8 ± 3.8 % of control
- cell viability ([8]; MCF-7, 48 h, 100.0 µM): 12.1 ± 2.7 % of control
- cell viability ([9]; MDA-MB-231, 24 h, 1.0 µM): 93.6 ± 4.8 % of control
- cell viability ([9]; MDA-MB-231, 24 h, 10.0 µM): 84.5 ± 6.7 % of control
- cell viability ([9]; MDA-MB-231, 24 h, 100.0 µM): 32.7 ± 5.2 % of control
- cell viability ([9]; MDA-MB-231, 48 h, 1.0 µM): 100.6 ± 2.2 % of control
- cell viability ([9]; MDA-MB-231, 48 h, 10.0 µM): 90.8 ± 1.2 % of control
- cell viability ([9]; MDA-MB-231, 48 h, 100.0 µM): 14.7 ± 0.6 % of control
- antibacterial activity (S. aureus ATCC 29213): not active
- antibacterial activity ([10]; MRSA): not active
- effect on cells (HT29 cells; HT29, at 100 µM): weak effects
- effect on cells ([11]; U251, at 100 µM): weak effects
- effect on cells ([12]; T98G, at 100 µM): weak effects

- Growth inhibition, MIC50 (Candida albicans KMM 455 [1]): 34.14 ± 2.1 µM
- MIC50 (Candida albicans KMM 455 [1]): 26 to 52 µM (≈ 11.6 to 23.1 µg/mL)
- Growth inhibition, MIC50 [2]: 26.74 ± 1.98 µM
- MIC50 [2]: 26 to 52 µM (≈ 11.6 to 23.1 µg/mL)
- Biofilm formation, MIC50 (Candida albicans KMM 455 [3]): 24.12 µM and 24.12 ± 3.07 µM
- Biofilm formation, MIC50 [4]: 83.01 µM and 83.01 ± 6.42 µM
Structure (SMILES): COc1c(OC)c(-c2c[nH]c3ccc(O)cc23)c(OC)c(OC)c1-c1c[nH]c2ccccc12 [Compound 8, petromurin C]
- IC50 at 24 h [5]: > 100 µM
- IC50 at 48 h [5]: > 100 µM
- IC50 at 24 h ([6]; HaCaT keratinocytes, 24 h): > 100 µM
- IC50 at 48 h ([6]; HaCaT keratinocytes, 48 h): 80.5 ± 1.8 µM
- IC50 at 24 h [6, 13]: > 100 µM
- IC50 at 48 h [6, 14]: 61.5 ± 1.2 µM
- IC50 at 24 h [6, 15]: ≥ 100 µM
- IC50 at 48 h [6, 16]: 91 ± 4.1 µM
- IC50 at 24 h [6, 17]: > 100 µM
- IC50 at 48 h [6, 18]: 79.9 ± 1.2 µM
- cell viability (HaCaT keratinocytes; 24 h, 1.0 µM): 102.7 ± 7.7 % of control
- cell viability (HaCaT keratinocytes; 24 h, 10.0 µM): 93.1 ± 6.9 % of control
- cell viability (HaCaT keratinocytes; 24 h, 100.0 µM): 64.3 ± 1.9 % of control
- cell viability (HaCaT keratinocytes; 48 h, 1.0 µM): 95.8 ± 1.9 % of control
- cell viability (HaCaT keratinocytes; 48 h, 10.0 µM): 97.7 ± 1.4 % of control
- cell viability (HaCaT keratinocytes; 48 h, 100.0 µM): 36.8 ± 7.0 % of control
- cell viability ([7]; 24 h, 1.0 µM): 91.9 ± 9.5 % of control
- cell viability ([7]; 24 h, 10.0 µM): 81.4 ± 1.0 % of control
- cell viability ([7]; 24 h, 100.0 µM): 52.0 ± 4.0 % of control
- cell viability ([7]; 48 h, 1.0 µM): 95.3 ± 3.4 % of control
- cell viability ([7]; 48 h, 10.0 µM): 92.1 ± 2.1 % of control
- cell viability ([7]; 48 h, 100.0 µM): 45.7 ± 6.6 % of control
- cell viability ([8]; MCF-7, 24 h, 1.0 µM): 105.4 ± 5.9 % of control
- cell viability ([8]; MCF-7, 24 h, 10.0 µM): 92.8 ± 3.0 % of control
- cell viability ([8]; MCF-7, 24 h, 100.0 µM): 53.7 ± 6.8 % of control
- cell viability ([8]; MCF-7, 48 h, 1.0 µM): 77.7 ± 3.7 % of control
- cell viability ([8]; MCF-7, 48 h, 10.0 µM): 70.6 ± 8.5 % of control
- cell viability ([8]; MCF-7, 48 h, 100.0 µM): 28.6 ± 4.3 % of control
- cell viability ([9]; MDA-MB-231, 24 h, 1.0 µM): 89.4 ± 2.4 % of control
- cell viability ([9]; MDA-MB-231, 24 h, 10.0 µM): 103.6 ± 2.2 % of control
- cell viability ([9]; MDA-MB-231, 24 h, 100.0 µM): 63.7 ±4.8 % of control
- cell viability ([9]; MDA-MB-231, 48 h, 1.0 µM): 102.9 ± 0.5 % of control
- cell viability ([9]; MDA-MB-231, 48 h, 10.0 µM): 89.5 ± 3.1 % of control
- cell viability ([9]; MDA-MB-231, 48 h, 100.0 µM): 38.6 ± 1.7 % of control
- antibacterial activity (S. aureus ATCC 29213): did not inhibit the growth
- effect with oxacillin ([10]; MRSA S. aureus 66/1, with oxacillin): synergistic effect
- IC50 (HT29 cells; read-out: IC50, cell viability): 34.8 µM
- effectiveness ([11]; U251 cells): not effective
- effectiveness ([12]; T98G cells): not effective
